This is an account of results in patent US20020193422A1, “Anthranilamides and methods of their use” (priority 2001, published 2002).

The target in this assay is T1, Human Kv1.5 channels (Homo sapiens, UniProt P22460).
T1 construct: expressed in transfected cells; host or cells: Xenopus laevis oocytes (injected with in vitro synthesized Kv1.5 coding RNA)
T1 sequence (P22460 whole entry): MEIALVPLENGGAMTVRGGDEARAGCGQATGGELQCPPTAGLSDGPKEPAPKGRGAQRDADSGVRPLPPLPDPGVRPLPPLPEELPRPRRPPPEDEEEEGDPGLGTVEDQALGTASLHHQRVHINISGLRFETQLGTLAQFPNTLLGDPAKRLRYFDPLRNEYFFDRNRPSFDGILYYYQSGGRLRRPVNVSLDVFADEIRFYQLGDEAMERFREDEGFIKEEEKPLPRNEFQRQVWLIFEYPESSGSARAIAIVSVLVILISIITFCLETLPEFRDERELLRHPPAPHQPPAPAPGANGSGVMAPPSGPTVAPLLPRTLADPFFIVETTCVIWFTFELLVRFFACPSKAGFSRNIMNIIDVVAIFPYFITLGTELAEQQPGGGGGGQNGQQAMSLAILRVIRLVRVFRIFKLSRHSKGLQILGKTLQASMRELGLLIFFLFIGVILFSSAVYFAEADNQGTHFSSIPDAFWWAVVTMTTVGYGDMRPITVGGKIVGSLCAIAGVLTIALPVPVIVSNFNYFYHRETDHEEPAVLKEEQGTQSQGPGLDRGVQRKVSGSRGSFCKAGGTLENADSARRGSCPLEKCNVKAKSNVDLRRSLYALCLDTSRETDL
Briefly: Kv1.5 currents in Xenopus oocytes, two-microelectrode voltage clamp. The class given is cell-based. Conditions: human Kv1.5 expressed in Xenopus laevis oocytes; 500 ms voltage jumps to 0 mV and 40 mV; room temperature; percentage inhibition of control current fitted with Hill equation. Here is the method:
Human Kv1.5 channels were expressed in xenopus oocytes. For this purpose, oocytes from Xenopus laevis were first isolated and defolliculated. Kv1.5 coding RNA synthesized in vitro was then injected into these oocytes. After Kv1.5 protein expression for 1-7 days, Kv1.5 currents were measured in the oocytes using the two-microelectrode voltage clamp technique. The Kv1.5 channels were activated here with 500 ms voltage jumps to 0 mV and 40 mV. The bath was flushed with a solution of the following: NaCl 96 mM, KCl 2 mM, CaCl2 1.8 mM, MgCl2 1 mM, HEPES 5 mM (titrated with NaOH to pH 7.4). These experiments were carried out at room temperature. The following were used for data collection and analysis: Geneclamp amplifier (Axon Instruments, Foster City, USA) and MacLab D/A converter and software (ADInstruments, Castle Hill, Australia). The compounds according to the invention were tested by adding them to the bath solution in different concentrations. The effects of the compounds were calculated as percentage inhibition of the Kv1.5 control current which was obtained when no compound was added to the solution. The data were then extrapolated using the Hill equation, in order to determine the inhibitory concentrations (IC50) for the respective compounds.
As for `Cc1ccc(S(=O)(=O)Nc2ccccc2C(=O)NCc2ccccc2)cc1` [Example 6], the IC50 stood at 4.1 µM. In the case of `COc1ccc(S(=O)(=O)Nc2cc(F)ccc2C(=O)N(C)Cc2ccccc2)cc1` [Example 2], the IC50 was 4.1 µM.

`CCN(C(=O)c1cc(C)ccc1NS(=O)(=O)c1ccc(C)cc1)c1ccccc1` [Example 17] yielded an IC50 of 1.6 µM. On to `CCN(Cc1ccccc1)C(=O)c1ccccc1NS(=O)(=O)c1ccc(C)cc1` [Example 7], for which inhibition was half-maximal at 5 µM (IC50). The molecule `COc1ccc(CNC(=O)c2cc(OC)ccc2NS(=O)(=O)c2ccc(Cl)cc2)cc1` [Example 16] showed an IC50 of 3.3 µM. As for `CCN(Cc1ccccc1)C(=O)c1ccccc1NS(=O)(=O)c1ccc(Cl)cc1` [Example 5], the 50% inhibitory concentration (IC50) is 3.2 µM. Molecule `Cc1ccc(S(=O)(=O)Nc2ccccc2C(=O)N(C)CCc2ccccc2)cc1` [Example 8] showed an IC50 of 4.6 µM. Molecule `O=C(NCCc1ccccc1)c1ccccc1NS(=O)(=O)c1ccccc1` [Example 10] registered an IC50 of 3.8 µM. Take `CCN(Cc1ccccc1)C(=O)c1cc(F)ccc1NS(=O)(=O)c1ccc(C)cc1` [Example 13]: the IC50 was found to be 3.7 µM. Turning to `CCN(C(=O)c1ccccc1NS(=O)(=O)c1ccc2ccccc2c1)c1ccccc1` [Example 26], the concentration for half-maximal inhibition (IC50) is 5.6 µM.

On to `Cc1cccc(NS(=O)(=O)c2ccc(Cl)cc2)c1C(=O)NCc1ccc(Cl)cc1` [Example 4], for which the IC50 came out at 2.4 µM.

`Cc1ccc(S(=O)(=O)Nc2ccc(F)cc2C(=O)NCCc2ccccc2)cc1` [Example 14] showed a half-maximal inhibitory concentration (IC50) of 4.1 µM.

`CCN(C(=O)c1ccccc1NS(=O)(=O)c1cccc2ccccc12)c1ccccc1` [Example 29]: the IC50 worked out at 1.9 µM.

The molecule `CN(CCc1ccccc1)C(=O)c1ccccc1NS(=O)(=O)c1ccccc1` [Example 11] yielded an IC50 of 3.7 µM.

In turn, `COc1ccc(NS(=O)(=O)c2ccc(C)cc2)c(C(=O)NCCc2cccs2)c1` [Example 19] registered a 50% inhibitory concentration (IC50) of 2.6 µM.

Molecule `CCCCS(=O)(=O)Nc1ccc(C)cc1C(=O)NCc1ccc(Cl)cc1` [Example 21] showed an IC50 of 6.1 µM.

With `Cc1ccc(CNC(=O)c2c(C)cccc2NS(=O)(=O)c2ccc(C)c(Cl)c2)o1` [Example 20], the IC50 was 3.8 µM. In turn, `COc1ccc(NS(=O)(=O)c2cccc3cccnc23)c(C(=O)NCCc2ccc(OC)c(OC)c2)c1` [Example 23] showed an IC50 of 6.9 µM. On to `COc1ccc(NS(=O)(=O)c2cccc(C(F)(F)F)c2)c(C(=O)NCCc2cccs2)c1` [Example 1], for which the IC50 was found to be 3 µM. Molecule `CCN(Cc1ccccc1)C(=O)c1ccccc1NS(=O)(=O)c1ccccc1` [Example 9] gave an IC50 of 4.7 µM. On to `CN(Cc1ccccc1)C(=O)c1ccccc1NS(=O)(=O)c1cccc2cccnc12` [Example 24], for which the IC50 is 4.6 µM. Take `COc1ccc(S(=O)(=O)Nc2ccc(OC)cc2C(=O)N(C)Cc2ccccc2)cc1` [Example 15]: the IC50 is 4.5 µM. The figure for `CCN(C(=O)c1ccccc1NS(=O)(=O)c1ccc(C)cc1OC)c1ccccc1` [Example 27] is 3 µM. In turn, `Cc1ccc(S(=O)(=O)Nc2ccccc2C(=O)NCc2cccc(C)c2)cc1` [Example 18] came in with a half-maximal inhibitory concentration (IC50) of 3.5 µM. On to `O=C(NCc1ccccc1)c1cc(Cl)ccc1NS(=O)(=O)c1ccc(Cl)cc1` [Example 22], for which it took 6 µM to reach half-maximal inhibition (IC50). `COc1ccc(NS(=O)(=O)c2ccc(C)cc2)c(C(=O)NCc2ccc(C)o2)c1` [Example 3] came in with an IC50 of 2.1 µM. As for `Cc1ccc(S(=O)(=O)Nc2ccc(F)cc2C(=O)NCc2ccccc2)cc1` [Example 12], the IC50 worked out at 3.6 µM. For `CCc1ccc(S(=O)(=O)Nc2ccccc2C(=O)N(CC)c2ccccc2)cc1` [Example 25], the IC50 worked out at 4.2 µM.

`CCN(C(=O)c1ccccc1NS(=O)(=O)c1cccc2cccnc12)c1ccccc1` [Example 28] gave an IC50 of 1.2 µM.
